US20180051309A1, “METHODS TO ASSESS MONITOR AND CONTROL BACTERIAL BIOFILMS” (ExxonMobil Research and Engineering Company, priority 2016, published 2018)

System: prophage regions DVU0189-DVU0221 and DVU2847-DVU2879
Assay: normalized gene expression (FPKM) of two prophage regions in planktonic and biofilm samples
Format: cell-based, Desulfovibrio vulgaris
Settings: biofilm controlled via indole, FIG. 1
Description: Overexpression of prophages is observed in biofilm samples when compared to planktonic samples.

c1ccc2[nH]ccc2c1 [indole]
phage genes expression: repressed phage genes expression
